The EC50 is the concentration at which the effect is half-maximal.

Where a SMILES comes first, the peptide text is derived from it. [ ]: non-standard residue; d: D form. ξ: configuration not given here. ξPro(4ξ-Me) = CC1CNC(C(=O)O)C1; ξIva = CCC(C)(N)C(=O)O; Aib = CC(C)(N)C(=O)O

The target in data set [1] is T1, human calcitonin receptor (Homo sapiens, UniProt P30988).
T1 construct: expressed in transfected cells; host or cells: BHK 570 clone KZ10-20-48 (CRE-luciferase), clone Hollex-1
T1 sequence (P30988 25-474): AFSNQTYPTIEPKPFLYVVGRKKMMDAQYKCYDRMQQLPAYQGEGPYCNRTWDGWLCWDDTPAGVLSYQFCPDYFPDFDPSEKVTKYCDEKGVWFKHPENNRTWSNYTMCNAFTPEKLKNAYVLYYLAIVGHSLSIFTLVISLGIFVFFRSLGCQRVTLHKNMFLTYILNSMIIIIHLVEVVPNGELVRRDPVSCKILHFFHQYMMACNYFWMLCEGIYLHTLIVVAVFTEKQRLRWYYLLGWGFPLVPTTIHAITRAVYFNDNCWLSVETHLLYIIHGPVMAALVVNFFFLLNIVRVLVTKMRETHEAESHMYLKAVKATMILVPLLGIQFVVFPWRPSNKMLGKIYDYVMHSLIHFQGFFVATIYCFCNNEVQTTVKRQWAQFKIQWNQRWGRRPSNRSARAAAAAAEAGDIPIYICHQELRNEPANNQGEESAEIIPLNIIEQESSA
Put plainly: CRE-luciferase induction in Hollex-1 cells (BHK 570 expressing human calcitonin receptor and CRE-luciferase reporter). It is filed as cell-based. The conditions noted are these: BHK 570 cells expressing human calcitonin receptor and CRE-luciferase reporter (Hollex-1).

A short description of data set [2]: Solubility of isolated powders in organic solvents. It is filed as physicochemical.
In data set [3] the test system is KZ10-20-48/Zem 228 cells (calcitonin receptor negative). Nature of the data set: CRE-luciferase induction in calcitonin receptor negative line KZ10-20-48/Zem 228 (specificity control). The class given is cell-based, baby hamster.
Data set [4] concerns human calcitonin receptor. Nature of the data set: CRE-luciferase induction in Hollex-1 cells (BHK 570 expressing human calcitonin receptor and CRE-luciferase reporter). The conditions noted are these: Hollex-1 clone; read-out: forskolin EC50, CRE-luciferase induction. The class given is cell-based.
Data set [5] has as its target hamster calcitonin receptor (Mesocricetus auratus, UniProt A0A3Q0D7K7). Nature of the data set: CRE-luciferase induction in Boris/KZ10-3 cells (calcitonin receptor positive).
For data set [6], the target named is T2, human glucagon receptor (Homo sapiens, UniProt P47871). Nature of the data set: cell-based.
T2 sequence (P47871 26-477): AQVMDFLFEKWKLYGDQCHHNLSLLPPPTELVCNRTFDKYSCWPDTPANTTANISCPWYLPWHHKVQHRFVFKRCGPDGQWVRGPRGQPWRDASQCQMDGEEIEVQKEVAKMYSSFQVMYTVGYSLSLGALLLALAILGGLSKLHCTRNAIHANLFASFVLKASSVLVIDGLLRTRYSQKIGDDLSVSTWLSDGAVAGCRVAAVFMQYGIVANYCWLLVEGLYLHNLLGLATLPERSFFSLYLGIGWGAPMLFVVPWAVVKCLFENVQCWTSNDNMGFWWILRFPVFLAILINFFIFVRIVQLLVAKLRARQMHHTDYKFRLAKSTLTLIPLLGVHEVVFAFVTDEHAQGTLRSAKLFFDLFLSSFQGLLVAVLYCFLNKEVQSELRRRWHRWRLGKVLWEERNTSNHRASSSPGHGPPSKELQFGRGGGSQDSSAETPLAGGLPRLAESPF
Data set [7] has as its system KZ10-20-48 cells (CRE-luciferase reporter). Put plainly: CRE-luciferase induction in parent reporter line BHK/KZ10-20-48. Conditions: clone KZ10-20-48, 25 mM forskolin, 4 hours; range 15-25 fold. The class given is cell-based, baby hamster. As to the method: Stable transfectants were selected by growth in Dulbecco's modified Eagle's medium (DMEM) supplemented with 10% heat inactivated fetal bovine serum (HI-FBS), 2 mM L-glutamine and 1 mM sodium pyruvate containing 250 nM methotrexate (MTX) for 10-14 days. Clones were isolated, grown to confluence in opaque white microtiter plates (Dynatech, Chantilly, Va.), then treated with […], which elevates cellular cAMP through direct activation of adenylate cyclase (Berkowitz and Gilman, Proc. Nat. Acad. Sci. USA 87:5258-62, 1990) for 4 hours at 37° C., 5% CO2 . Following incubation, cells were lysed and assayed for luciferase induction in a Labsystems Luminoskan microtiter luminometer (Labsystems Inc., Morton Grove, Ill.) using a Promega luciferase kit (El500, Promega Corp., Madison, Wis.), as described below.

Data set [8] addresses T2, human glucagon receptor. The conditions noted are these: KZ10-20-48/pLJ6-4-25 clone.
The subject of data set [9] is osteoclasts in mouse calvariae. Nature of the data set: Calvaria histology (TRAP-stained osteoclast number and size). The class given is cell-based. From the text:
To confirm the findings in the calvarial bone resorption assay employing calcium release from culture mouse calvariae, selected bones were fixed in 10% neutral buffered formalin and demineralized in 5% formic acid with 5% formalin. The bones were dehydrated through an ascending series of ethanol concentrations, infiltrated in glycol methacrylate, and embedded using a JB-4 embedding kit (PolySciences, Warrington, Pa.) (Liu and Kalu, J. Bone Miner. Res., 5:973-82, 1990). Cross sections of calvariae cut at 5 μm were obtained and stained for tartrate-resistant acid phosphatase (TRAP) activity and counterstained with methyl green and thionin for cell morphology (Liu and Kalu, J. Bone. Miner. Res. 1990, supra). Osteoclasts were identified by TRAP stain, multinucleation, large cell size, and irregular cell shape. The number of osteoclasts were counted from endocranial and ectocranial bone surfaces and expressed as number/mm perimeter. The size of all the osteoclasts counted was also measured using a Bone Morphometry program (Lui and Kalu, supra.; Bain et al., J. Done Miner. Res. 8:435-42, 1993). […] This PTH-induced increase was suppressed by treatment with human calcitonin.
Calcitonin mimetic compounds were evaluated in a similar fashion for their ability to suppress PTH-induced increases in osteoclast number and size. Cell toxicity (or death) was also evaluated morphologically. […]

In data set [10] the test system is PTH-Induced Bone Resorption in Mouse Calvariae. Nature of the data set: Calvarial assay: PTH-induced bone resorption (calcium release). It is filed as cell-based. The conditions noted are these: 1 nM PTH 1-34, 72 hours, read-out: Inhibition of Ca++ Release EC50. As to the method: Calvaria from 4-day old neonatal CD-1 mice (pregnant mice received from Charles River Laboratories, Wilmington, Mass.) were trimmed with fine-tipped scissors to leave the parietal regions, including the sagittal suture. These trimmed bones were placed singly per well into 6-well cell culture cluster plates (Costar, Pleasanton, Calif.) with 1 ml/well of growth medium (DMEM, BioWhittaker, Walkersville, Md.) with 4.5 g/L glucose, 0.29 mg/ml L-glutamine, 1 mM sodium pyruvate, 15% heat-inactivated horse serum, and antibiotics (penicillin-G 50 μg/ml, streptomycin 50 μg/ml, and neomycin 100 μg/ml), and rocked gently (RedRocker™, model PR50-115V, Hoefer, San Francisco, Calif.) at 37° C. in a 5% CO2 humidified incubator for 24 hours preincubation.
Following incubation, medium was removed and replaced with 1.5 ml/well of growth medium containing 1 nM parathyroid hormone (PTH) 1-34 (Sigma) to stimulate bone resorption. For evaluation of the ability of calcitonin mimetics to inhibit PTH induced bone resorption, mimetic compounds in DMSO were added to the growth medium at concentrations ranging from 1-240 μg/ml (final assay concentration of DMSO less than or equal to 1%). In each experiment human calcitonin (0.02-20 nM, 0.2-2 nM preferred) was added to PTH treated bones as a positive control. […]

The mark [11] stands for this setting: in acetonitrile, ethyl acetate, and chloroform.
Where [12] appears, read: in methanol, ethanol, n-butanol and dimethyl sulfoxide.

hamster calcitonin receptor, sequence (A0A3Q0D7K7 entry or part of it): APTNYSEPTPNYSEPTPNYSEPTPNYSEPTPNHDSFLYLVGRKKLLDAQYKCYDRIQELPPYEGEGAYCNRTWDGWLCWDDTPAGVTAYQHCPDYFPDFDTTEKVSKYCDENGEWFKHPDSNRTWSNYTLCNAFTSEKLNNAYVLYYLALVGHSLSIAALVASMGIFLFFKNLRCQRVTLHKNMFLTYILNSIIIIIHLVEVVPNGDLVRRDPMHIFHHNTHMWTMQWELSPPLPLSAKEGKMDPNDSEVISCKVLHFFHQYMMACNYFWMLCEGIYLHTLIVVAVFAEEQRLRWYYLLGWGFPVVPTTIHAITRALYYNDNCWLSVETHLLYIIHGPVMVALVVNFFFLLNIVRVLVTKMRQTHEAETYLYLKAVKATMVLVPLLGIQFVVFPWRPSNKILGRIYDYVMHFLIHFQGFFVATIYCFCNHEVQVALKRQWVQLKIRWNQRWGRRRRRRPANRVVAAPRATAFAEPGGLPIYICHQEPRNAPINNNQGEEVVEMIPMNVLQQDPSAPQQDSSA

As to `CC[C@H](C)[C@H](NC(=O)C(C)(C)NC(=O)[C@H](CCC(N)=O)NC(=O)C(C)(CC)NC(=O)[C@H](Cc1c[nH]c2ccccc12)NC(C)=O)C(=O)N[C@H](C(=O)NC(C)(C)C(=O)N[C@@H](CC(C)C)C(=O)NC(C)(C)C(=O)N1CCC[C@H]1C(=O)N[C@@H](CCC(N)=O)C(=O)NC(C)(C)C(=O)N1CCC[C@H]1C(=O)NC(C)(C)C(=O)N1CC(C)CC1C(=O)N[C@@H](Cc1ccccc1)C(=O)O)[C@@H](C)O` (stereo partly drawn) [ZG 2807 B, Acetyl-Trp-Xaal-Gln-Aib-Ile-Thr-Aib-Leu-Aib-Pro-Gln-Aib-Pro-Aib-Xaa2-Phe] (Ac-W[ξIva]Q[Aib]IT[Aib]L[Aib]PQ[Aib]P[Aib][ξPro(4ξ-Me)]F-OH), the EC50 in data set [1] stood at 525 nM. Also, the solubility entry in data set [2] (setting [11]) was “slightly soluble”; in data set [2] (in hexane), “insoluble”; in data set [2] (setting [12]), “readily soluble”.
For the compound `C=C[C@@]1(C)CC(=O)[C@]2(O)[C@@]3(C)[C@@H](O)CCC(C)(C)[C@@H]3[C@H](O)[C@H](OC(C)=O)[C@@]2(C)O1` [forskolin], the EC50 worked out at 600 nM in data set [3] (Mesocricetus auratus, range 0.5-1.5 μM); 1200 nM in data set [4]; 900 nM in [5]; 2100 nM on human glucagon receptor [6]. Besides, the “induction of CRE-luciferase” value in [3] (range 20-35 fold) stood at 30 fold. Further, the results for the induction of luciferase (in data set [5] (Boris/KZ10-3 clone); on human glucagon receptor [8]) were 25 fold and 35 fold, respectively. In addition, in data set [7], the “induction of CRE-luciferase vs basal” value is 20 fold.
Turning to `CC[C@H](C)[C@H](NC(=O)C(C)(C)NC(=O)[C@H](CCC(N)=O)NC(=O)C(C)(CC)NC(=O)[C@H](Cc1c[nH]c2ccccc12)NC(C)=O)C(=O)N[C@H](C(=O)NC(C)(C)C(=O)N[C@@H](CC(C)C)C(=O)NC(C)(C)C(=O)N1CCC[C@H]1C(=O)N[C@@H](CCC(N)=O)C(=O)NC(C)(C)C(=O)N1CCC[C@H]1C(=O)NC(C)(C)C(=O)N1CC(C)CC1C(=O)N[C@@H](Cc1ccccc1)C(=O)NCC(=O)O)[C@@H](C)O` (stereo partly drawn) [ZG 2807 A, Acetyl-Trp-Xaal-Gln-2-aminoisobutyric acid (Aib)-Ile-Thr-Aib-Leu-Aib-Pro-Gln-Aib-Pro-Aib-Xaa2-Phe-Gly] (Ac-W[ξIva]Q[Aib]IT[Aib]L[Aib]PQ[Aib]P[Aib][ξPro(4ξ-Me)]FG-OH), in data set [9] (PTH-treated mouse calvariae, the cell wraps over two lines: 'Inhibition of osteoclast size'), the Histology entry is recorded as “Inhibition of osteoclast”. Moreover, the concentration for a half-maximal effect (EC50) in data set [1] is 506 nM; in [10] it was 33200 nM. Besides, the solubility entry is “slightly soluble” in data set [2] (setting [11]), “insoluble” in [2] (in hexane) and “readily soluble” in data set [2] (setting [12]).
Regarding “parathyroid hormone (PTH) 1-34 (SVSEIQLMHNLGKHLNSMERVEWLRKKLQDVHNF; Parathyroid hormone; UniProt P01270 32-65, looked up, fragment) [PTH 1-34, stimulus of bone resorption in the calvarial assay, reference compound]”, in data set [9] (cultured mouse calvariae, calcitonin tested against the PTH-induced increase), the “number and size of osteoclasts (histomorphometry)” value was “increases in the number and size of osteoclasts”.

The record behind these values is patent US5698521A, “Native calcitonin mimetics” (ZymoGenetics, Inc., priority 1995, dated 1997).
